In US8420823B2, “Long-chain fatty acyl elongase inhibitor comprising arylsulfonyl derivative as active ingredient” (MSD K.K., priority 2008, dated 2013) one finds IC50 data, which are given here for 4 molecules.

pIC50: −log10 of the molar value.

The target in the assay is T1, human LCE (Homo sapiens, UniProt Q9H5J4).
T1 sequence (Q9H5J4 1-265): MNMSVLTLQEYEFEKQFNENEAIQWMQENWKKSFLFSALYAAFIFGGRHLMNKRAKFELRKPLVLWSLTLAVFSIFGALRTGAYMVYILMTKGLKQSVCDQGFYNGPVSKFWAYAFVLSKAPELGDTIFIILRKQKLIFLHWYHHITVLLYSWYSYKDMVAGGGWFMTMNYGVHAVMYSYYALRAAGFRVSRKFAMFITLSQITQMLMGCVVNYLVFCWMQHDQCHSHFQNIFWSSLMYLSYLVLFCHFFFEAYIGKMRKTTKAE
Put plainly: LCE enzyme activity-inhibitory test. In kind it is biochemical. The conditions noted are these: [14C]-malonyl CoA / palmitoyl CoA substrate, 37° C., 90 minutes. Summed up: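 Human LCE (100 μg/mL in enzyme solution) was incubated 90 min at 37 °C in 100 mM potassium phosphate pH 6.5 with palmitoyl CoA, malonyl CoA, [14C]-malonyl CoA, rotenone and fatty acid-free BSA. Acid-stopped, hydrolyzed products were captured on GF/C filters and counted by scintillation. Inhibition was calculated against DMSO control.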
As usually defined, the pIC50 is the negative decadic logarithm of the IC50, by convention in mol/L. As to `CC(C)Oc1ccc(C(=O)NCc2cccc(S(=O)(=O)N3CCCCC3)c2)cc1` [Example 159, 4-Isopropoxy-N-[3-(piperidin-1-ylsulfonyl)benzyl]benzamide], the negative-log IC50 (pIC50) is 6.64. For `CC(C)Oc1ccc(NC(=O)Cc2cccc(S(=O)(=O)N3CCCCC3)c2)cc1` [Example 160, N-(4-isopropoxyphenyl)-2-[3-(piperidin-1-ylsulfonyl)phenyl]acetamide], the pIC50 is 6.89.

Turning to `CC(C)Oc1ccc(C(=O)NCCc2cccc(S(=O)(=O)N3CCCCC3)c2)cc1` [Example 161, 4-Isopropoxy-N-{2-[3-(piperidin-1-ylsulfonyl)phenyl]ethyl}benzamide], the pIC50 is 5.32. The result for `CC(C)Oc1ccc(NC(=O)CCc2cccc(S(=O)(=O)N3CCCCC3)c2)cc1` [Example 162, N-(4-isopropoxyphenyl)-3-[3-(piperidin-1-ylsulfonyl)phenyl]propanamide] reads 5.82.
